Two molecules from patent US20250313532A1, “ALDH2 INHIBITORS AND METHODS OF USE THEREOF” (UNIVERSITY OF MARYLAND, BALTIMORE, priority 2022, published 2025) can be followed below.

Where two headings read alike, the source gives them in different places.

One data set deals with T1, ALDH2 (Homo sapiens, UniProt P05091).
T1 construct: purchased Abcam 87415
T1 sequence (P05091 18-517): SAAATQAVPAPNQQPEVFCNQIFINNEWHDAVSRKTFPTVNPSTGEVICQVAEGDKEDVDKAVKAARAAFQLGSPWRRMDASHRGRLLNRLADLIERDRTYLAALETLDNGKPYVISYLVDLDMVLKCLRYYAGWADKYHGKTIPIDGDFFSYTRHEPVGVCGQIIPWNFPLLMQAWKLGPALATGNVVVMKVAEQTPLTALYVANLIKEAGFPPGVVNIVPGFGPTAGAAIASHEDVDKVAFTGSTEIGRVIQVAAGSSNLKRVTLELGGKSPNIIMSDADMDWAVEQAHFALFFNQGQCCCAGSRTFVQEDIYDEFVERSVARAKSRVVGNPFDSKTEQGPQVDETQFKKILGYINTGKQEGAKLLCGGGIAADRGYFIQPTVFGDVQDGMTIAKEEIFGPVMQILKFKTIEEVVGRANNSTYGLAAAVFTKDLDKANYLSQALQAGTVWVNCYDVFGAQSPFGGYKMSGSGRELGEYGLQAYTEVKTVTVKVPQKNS
Put plainly: Fluorescence-based ALDH2 enzymatic inhibition assay (NADH fluorescence). Type of data set: biochemical. The note with it: for IC50: ALDH2 50 nM, formaldehyde 300 μM, NAD+ 1.2 mM, pH 7.4, 25° C.; for fold more potent than hit CB-01 (ALDH2 IC50): relative to parent screening hit CB-01.

The next data set addresses T2, OATP1B1 (Homo sapiens, UniProt Q9Y6L6).
T2 construct: expressed in transfected cells; host or cells: HEK293
T2 sequence (Q9Y6L6 1-691): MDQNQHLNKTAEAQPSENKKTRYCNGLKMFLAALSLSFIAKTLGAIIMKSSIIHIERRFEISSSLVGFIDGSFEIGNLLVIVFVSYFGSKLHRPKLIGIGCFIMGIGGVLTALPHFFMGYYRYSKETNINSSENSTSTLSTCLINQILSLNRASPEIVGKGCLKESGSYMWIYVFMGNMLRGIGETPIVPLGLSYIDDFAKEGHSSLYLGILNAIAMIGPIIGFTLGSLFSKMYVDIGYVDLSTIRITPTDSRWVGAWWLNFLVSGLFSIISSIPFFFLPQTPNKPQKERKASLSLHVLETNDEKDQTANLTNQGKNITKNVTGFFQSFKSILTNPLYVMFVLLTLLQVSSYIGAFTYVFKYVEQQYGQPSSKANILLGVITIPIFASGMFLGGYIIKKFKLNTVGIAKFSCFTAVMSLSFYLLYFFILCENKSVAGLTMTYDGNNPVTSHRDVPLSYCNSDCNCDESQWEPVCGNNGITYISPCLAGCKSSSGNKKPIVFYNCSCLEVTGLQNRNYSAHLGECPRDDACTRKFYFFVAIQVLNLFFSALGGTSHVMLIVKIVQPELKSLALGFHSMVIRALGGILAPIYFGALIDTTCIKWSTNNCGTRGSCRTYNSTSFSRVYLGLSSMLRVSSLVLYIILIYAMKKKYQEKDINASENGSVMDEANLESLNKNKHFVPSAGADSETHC
The data set can be described thus: OATP1B1-mediated uptake, OATP1B1-transfected vs wild-type HEK293 cells. In kind it is in vitro ADME. The procedure: The uptake of inhibitor YA7068 by the liver-specific transporter OATP1B1 has been evaluated using a protocol similar to the one in a recent study on OCT transporters by Obianom et al. After incubating OATP1B1-transfected HEK293 cells with the compound, the intracellular concentrations of YA7068 was >2.5-fold higher than that after incubating the wild-type HEK293 cells with the compound (FIG. 3D). In sum, compound YA7068 is developed as a novel liver-targeting potent inhibitor of ALDH2.
The OATP1-mediated uptake of synthesized compounds is assessed by an LC-MS-based method employing the OATP1B1- or OATP1B3-expressing HEK293 cells. Briefly, cells are washed twice with uptake buffer to remove floating cells. Compounds diluted in the uptake buffer are replaced in the wells and incubated for 10 min. For screening of compounds at a single concentration and one-time point, the cells are incubated with 100 μM of testing compounds. In each experiment, pitavastatin is used as a positive control. The incubation is stopped by removing the solution and adding […] of ice-cold uptake buffer. The cells are washed twice with the buffer. After washing, 200 μL of lysing solution (1:1 MeOH/H2O) containing internal standard is added. […] Aliquots of the supernatant are transferred to new tubes and drug concentration is quantified by LC-MS/MS. […]

Data set [1] relates to primary human hepatocytes. The data set can be described thus: Cytotoxicity / cell viability in primary human hepatocytes (CCK-8). The conditions noted are these: concentration up to 200 uM, 24 h. Type of data set: cell-based. The procedure: Initial cell viability assays are performed on the YA7068 and new analogs on primary human hepatocytes (see letter from Prof. Hongbing Wang) using the commercially available CellTiter-Glo® 2.0 (Promega) as described by the manufacturer. […] These studies allow us to assess if the compounds are non-toxic for human liver cells.
Cytotoxicity studies of YA7068 to primary human hepatocytes were performed.
Human primary hepatocytes were maintained in DMEM medium with 10% fetal bovine serum (FBS) and 1% PS (penicillin/streptomycin). The cells were incubated in 37° C. incubator with 5% CO2. The number of viable cells was determined using the CCK-8 assay. Briefly, cells were seeded at a density of 5000 cells/well in 96-well plates, a nd were treated in triplicate with different concentrations of individual compounds (0, 0.1, 0.5, 1, 5, 10, 25, 50, 100, and 200 PM) for 24 h. Then, 10 μL of CCK-8 working solution was added to each well and incubated for appropriate times (0.5-4 h) before subjecting to a microplate reader for OD detection at 450 nm.

Method for ALDH2: Fluorescence-based ALDH2 assay was used to test the potencies of new compounds.
IC50 values of synthesized compounds is tested by an ALDH2 enzymatic assay obtained by modifying a published protocol, for example by Yang et al. This assay measures an inhibitor-caused fluorescence decrease of the NADH generated from the ALDH2 catalytic reaction. Inhibitor binding causes a decrease in the production of NADH that affects the ability of the enzyme to turnover its substrate aldehyde and decreased the production of carboxylic acid. The assay components include: ALDH2 (50 nM) (Abcam #87415), substrate formaldehyde (300 μM), NAD^+ (1.2 mM), and testing compound in phosphate buffer (50 mM, pH 7.4) with 0.01% Tween 20 at 25° C. The assay is performed in black 384-well plates (40 L total volume; Costar). […] The negative control contains the enzyme, substrate solution in phosphate buffer without the addition of the substrate formaldehyde. Measurements are performed 10 min after adding the testing compound by excitation of NAD^+ at 340 nm, which leads to fluorescence emission at 450 nm. The IC50 values of testing compounds is determined from experiments performed in a concentration-dependent manner of testing compounds by fitting the data to a sigmoidal dose-response equation in GraphPad Prism. All experiments are performed in triplicate.
An HTS ALDH2 enzymatic assay is established and can be used to measure the inhibitory potency of compounds. […] The assay was used for temperature, pH value, and concentration of ALDH2 in the 384-well format; several independent test runs were performed to assess assay parameters.
To determine the performance of the established ALDH2 activity assay under HTS conditions, a pilot screen of 980 compounds was performed. Compounds were tested in triplicate at concentrations ranging from 10 nM to 50 μM (0.1% DMSO). Raw assay data were analyzed using DataWarrior software. The IC50 value of each compound was calculated. “High Control” represents wells from the same plate containing ALDH2 (50 nM), formaldehyde (300 μM), and NAD^+ (1.2 mM) in phosphate buffer (50 mM, pH 7.4) with 0.01% Tween 20 at 25° C. and DMSO (0.1%) while “Low controls” correspond to the wells from the same plate containing ALDH2 (50 nM) treated with and NAD^+ (1.2 mM) in phosphate buffer (50 mM, pH 7.4) with 0.01% Tween 20 at 25° C. and DMSO (0.1%). […] Two values were subsequently calculated: 1) the average IC50 values of all the compounds tested in the screen, and 2) three times the standard deviation. The sum of these two values was used as the cutoff parameter.

For `CS(=O)(=O)Nc1ccc(-c2cn3cc(C(=O)O)sc3n2)cc1` [YA7241, 6-(4-(Methylsulfonamido)phenyl)imidazo[2,1-b]thiazole-2-carboxylic acid], the IC50 on ALDH2 (read-out: IC50, ALDH2 enzymatic assay) came to 1900 nM. On ALDH2, the “fold more potent than hit CB-01 (ALDH2 IC50)” value was determined as 5.8 fold.

`CS(=O)(=O)Nc1ccc(-c2cc3ccc(OCc4cccc(C(=O)O)c4)cc3oc2=O)cc1` [YA7068, 3-(((3-(4-(Methylsulfonamido)phenyl)-2-oxo-2H-chromen-7-yl)oxy)methyl)benzoic acid]: the “intracellular concentration, OATP1B1-transfected HEK293 cells vs wild-type HEK293 cells” value on OATP1B1 (after incubating cells with the compound) is given as more than 2.5 fold. The “substrate for hepatocyte-specific OATP1B1” value at OATP1B1 (result in words) is given as “functions as a substrate”. For the same molecule, in data set [1], the “cytotoxicity for primary human hepatocytes” value was “did not exhibit any cytotoxicity”. The IC50 on ALDH2 (read-out: IC50, inhibition of the enzymatic activity of ALDH2) was 62 nM. Besides, on ALDH2, the “fold more potent than hit CB-01 (ALDH2 IC50)” value is reported as more than 170 fold.

A word on the IC50: it is the midpoint of a concentration-inhibition curve.
